Laboratory results as given in US7476668B2, “Thiadiazine derivatives and use thereof as positive AMPA receptor modulators” (Les Laboratoires Servier, priority 2003, dated 2009).

Tested on: AMPA receptors (rat cerebral cortex poly(A+) mRNA expressed in Xenopus oocytes)
Assay: Excitatory currents induced by AMPA in Xenopus oocytes (two-electrode voltage-clamp)
Type: cell-based
Conditions: (S)-AMPA 10 μM; Xenopus oocytes injected with rat cortex mRNA; 20-24° C.
Experimental: Study of the Excitatory Currents Induced by AMPA in Xenopus Oocytes
mRNA's are prepared from cerebral cortex of male Wistar rats by the guanidinium thiocyanate/phenol/chloroform method. The poly (A^+) mRNA's are isolated by chromatography on oligo-dT cellulose and injected at a level of 50 ng per oocyte. The oocytes are incubated for 2 to 3 days at 18° C. to permit expression of the receptors and are then stored at 8-10° C.
Electrophysiological recording is carried out in a Plexiglass® chamber at 20-24° C. in OR2 medium (J. Exp. Zool., 1973, 184, 321-334) by the “voltage-clamp” method using two electrodes, a third electrode being placed in the bath serving as reference.
All the compounds are applied via the incubation medium and the electric current is measured at the end of the application period. (S)-AMPA is used in a concentration of 10 μM. For each compound studied, the concentration that doubles (EC2X) or quintuples (EC5X) the intensity of the current induced by AMPA alone (5 to 50 nA) is determined.
The compounds of the invention potentiate the excitatory effects induced by (S)-AMPA to a very considerable degree.

Row | SMILES | EC2X (concentration that doubles the intensity of the current induced by AMPA alone) [µM] | EC5X (concentration that quintuples the intensity of the current induced by AMPA alone) [µM]
1 | CN1CNS(=O)(=O)c2c(Cl)sc(Cl)c21 [Example 6, 5,7-Dichloro-4-methyl-3,4-dihydro-2H-thieno[3,4-e][1,2,4]thiadiazine 1,1-dioxide] | 5.4 ± 2.8 | 11.3 ± 4.9
2 | CC(C)N1CNS(=O)(=O)c2sc(Cl)cc21 [Example 4, 6-Chloro-4-isopropyl-3,4-dihydro-2H-thieno[3,2-e][1,2,4]thiadiazine 1,1-dioxide] | 4.2 ± 0.7 | 11 ± 3
